Marks after values point to notes of the source that are not given here.
Experiments:
[1] = test system: patients with end stage renal disease (ESRD); conditions: 3 g daily, recent pilot study in ESRD patients; cited from earlier work
[2] = test system: patients with end stage renal disease (ESRD); assay: Open-label extension of Phase II study: serum creatinine level; type: in vivo, human; conditions: several patients who received 6 g/day
Description: Glomerular filtration rate (GFR) level correlates with structural kidney damage and is used as a golden standard to measure kidney function. GFR can be estimated by the biomarkers serum creatinine. As renal function deteriorates, kidney lost its function to excrete creatinine effectively and lead to creatinine retention in the body. Therefore, increase of serum creatinine indicates lowering GFR and is an important sign of kidney deterioration.
In an open-label extension of a Phase II clinical study: “randomized, double-blind, placebo-controlled, dose-ranging study of the effects of ferric citrate on serum phosphate in patients with end stage renal disease (ESRD)”, some of the patients were administered 2˜6 g/day of ferric citrate and serum creatinine level was monitored to assess kidney function.

[3] = test system: patients with end stage renal disease (ESRD) on hemodialysis; assay: Randomized, double-blind, placebo-controlled, dose-ranging study of ferric citrate on serum phosphate, calcium and Ca x PO4; type: in vivo, human; conditions: for Serum Ca: Linear Regression: N.S.: Not Significant
Method: Ferric citrate is supplied in 500 mg capsules, whereas the placebo will be provided in identical-looking capsules (indistinguishable from those containing the active drug); the placebo capsules will contain sorbitol and colorant to match the powder color of the active capsules. The placebo capsule shells will be identical to the active capsule shells.
An non-limiting example of a dosing regimen is provided below. This is not meant to limit the invention as to how an effective amount of ferric citrate is selected, or the form in which it is provided or the frequency of administering the composition per day. The following merely illustrates how ferric citrate and placebo may be administered; e.g., as 500 mg capsules of identical appearance. All patients may receive (in a blinded fashion) 4 capsules with each of three meals, on a daily basis, for 28 days. Patients will be instructed to take the study medication within 10 minutes of finishing their meals (breakfast, lunch, and dinner).
Each patient's participation in the trial lasts for up to 8 weeks: the screening period (approximately 1-2 weeks), a 1-2 week washout, and 4 weeks of treatment with study medication.
The change in serum PO4 concentration at Days 14 and 28 from baseline.
The change in serum calcium concentration at Days 14 and 28 from baseline.
The change in the Ca′PO4 product at Days 14 and 28 from baseline.
Objectives: (1) To determine the effect of ferric citrate at doses of 2, 4 and 6 g daily, administered TID (three times a day), for 28 days on serum phosphate (PO4) levels in patients with end stage renal disease (ESRD). (2) To evaluate the safety of ferric citrate at doses of 2, 4, 6 g daily, administered TID, for 28 days in patients with ESRD.
Study Design: Randomized, double-blind, placebo-controlled, dose-ranging study to assess the effect of ferric citrate on serum phosphate concentrations in patients with ESRD on hemodialysis. Patients are assessed at Study Days 14 and 28 for effectiveness as measured by serum phosphate concentrations. Patients who received one or more doses of study medication are also assessed for safety.
Study Duration: 8 weeks (including the screening period, 2 weeks washout, 4 weeks treatment)
Ferric citrate is administered orally, and is given equally three times a day.

[4] = 2 g/day (N = 31), Day 0 (baseline)
[5] = 4 g/day (N = 32), Day 0 (baseline)
[6] = 6 g/day (N = 32), Day 0 (baseline)
[7] = 6 g/day (N = 32), Day 28, P < 0.05 baseline change vs placebo
[8] = at 0, 2, and 6 gm/day, TID immediately after meals, oral

For ferric citrate, the “tolerability (GI symptoms)” value [1] is given as “mild, but tolerable GI symptoms”, the serum creatinine level [2] is given as “trend of decreased serum creatinine level” and the “Serum [Ca]” value [3, 4] is given as 8.78 ± 0.981 mg/dL. For the same substance, the “Serum [PO4]” value [3, 4] was 7.1 ± 1.23 mg/dL, the “[Ca] * [PO4]” value [3, 4] was 62.9 ± 13.25 (mg/dL)^2 and the “Serum [Ca]” value ([3]; 2 g/day (N = 31), Day 14) was 9.01 ± 1.232 mg/dL. For the same substance, the “Serum [PO4]” value ([3]; 2 g/day (N = 31), Day 14) was 6.7 ± 1.50 mg/dL, the “[Ca] * [PO4]” value ([3]; 2 g/day (N = 31), Day 14) was 60.3 ± 16.50 (mg/dL)^2 and the “Serum [Ca]” value ([3]; 2 g/day (N = 31), Day 28) was 9.00 ± 0.953 mg/dL. For the same substance, the “Serum [PO4]” value ([3]; 2 g/day (N = 31), Day 28) was 6.9 ± 2.22 mg/dL, the “[Ca] * [PO4]” value ([3]; 2 g/day (N = 31), Day 28) was 61.7 ± 21.25 (mg/dL)^2 and the “Serum [Ca]” value [3, 5] was 9.02 ± 0.913 mg/dL. The “Serum [PO4]” value [3, 5] was 7.1 ± 1.27 mg/dL, the “[Ca] * [PO4]” value [3, 5] was 63.5 ± 10.69 (mg/dL)^2 and the “Serum [Ca]” value ([3]; 4 g/day (N = 32), Day 14) was 9.47 ± 0.990 mg/dL. For the same substance, the “Serum [PO4]” value ([3]; 4 g/day (N = 32), Day 14) was 6.4 ± 1.56 mg/dL, the “[Ca] * [PO4]” value ([3]; 4 g/day (N = 32), Day 14) was 59.9 ± 13.89 (mg/dL)^2 and the “Serum [Ca]” value ([3]; 4 g/day (N = 32), Day 28) was 9.29 ± 0.960 mg/dL. For the same substance, the “Serum [PO4]” value ([3]; 4 g/day (N = 32), Day 28) was 6.0 ± 1.33 mg/dL, the “[Ca] * [PO4]” value ([3]; 4 g/day (N = 32), Day 28) was 55.4 ± 13.36 (mg/dL)^2 and the “Serum [Ca]” value [3, 6] was 8.99 ± 0.812 mg/dL. For the same substance, the “Serum [PO4]” value [3, 6] was 7.3 ± 1.33 mg/dL, the “[Ca] * [PO4]” value [3, 6] was 65.8 ± 12.19 (mg/dL)^2 and the “Serum [Ca]” value ([3]; 6 g/day (N = 32), Day 14) was 9.13 ± 0.909 mg/dL. For the same substance, the “Serum [PO4]” value ([3]; 6 g/day (N = 32), Day 14) was 6.3 ± 1.72 mg/dL, the “[Ca] * [PO4]” value ([3]; 6 g/day (N = 32), Day 14) was 57.5 ± 16.27 (mg/dL)^2 and the “Serum [Ca]” value ([3]; 6 g/day (N = 32), Day 28) was 9.26 ± 0.865 mg/dL. For the same substance, the “Serum [PO4]” value [3, 7] was 5.8 ± 1.76 mg/dL, the “[Ca] * [PO4]” value [3, 7] was 54.1 ± 17.68* (mg/dL)^2 and the “change in Ca*PO4 levels” value ([3]; 6 gm/day dose at both 14 and 28 days) was “decreased and were statistically significant”. For the same substance, the “Serum Ca: Dose Response” value ([3]; Day 0) was “No”, the “Ca × PO4: Linear Regression P” value ([3]; Day 14) was “P = 0.0401” and the “Ca × PO4: Statistical Significant” value ([3]; Day 14) was “No”. The “Serum Ca: Statistical Significant” value ([3]; Day 14) was “No”, the “Serum PO4: Statistical Significant” value ([3]; Day 14) was “No” and the “Serum Ca: Linear Regression” value ([3]; Day 14) was “N.S”. For the same substance, the “Ca × PO4: Dose Response” value ([3]; Day 14, placebo, 2, 4, 6 g/day) was “Yes”, the “Serum Ca: Dose Response” value ([3]; Day 14, placebo, 2, 4, 6 g/day) was “No” and the “Serum PO4: Dose Response” value ([3]; Day 14, placebo, 2, 4, 6 g/day) was “No”. For the same substance, the “Ca × PO4: Linear Regression P” value ([3]; Day 28) was “P = 0.0158”, the “Ca × PO4: Statistical Significant” value ([3]; Day 28) was “Yes (6 g/day)” and the “Serum Ca: Statistical Significant” value ([3]; Day 28) was “No”. For the same substance, the “Serum PO4: Linear Regression P” value ([3]; Day 28) was “P = 0.0073”, the “Serum PO4: Statistical Significant” value ([3]; Day 28) was “Yes (6 g/day)” and the “Serum Ca: Linear Regression” value ([3]; Day 28) was “N.S”. For the same substance, the “Ca × PO4: Dose Response” value ([3]; Day 28, placebo, 2, 4, 6 g/day) was “Yes”, the “Serum Ca: Dose Response” value ([3]; Day 28, placebo, 2, 4, 6 g/day) was “No” and the “Serum PO4: Dose Response” value ([3]; Day 28, placebo, 2, 4, 6 g/day) was “Yes”. The “change in Ca*PO4” value [3, 8] was “decrease”, the “change in serum PO4” value [3, 8] was “decrease” and the “change in serum calcium level” value ([3]; during the 28 days, 2, 4, and 6 gm/day) was “No significant change”. The “ability to lower the serum phosphate levels” value ([3]; patients with ESRD) was “demonstrated”.
